The target in test [1] is T1, Transcriptional coactivator YAP1/Transcriptional enhancer factor TEF-1 (Homo sapiens, UniProt P28347). Briefly: Inhibition of YAP/ GST-TEAD1 (unknown origin) interaction by surface plasmon resonance assay. The class given is protein assay.
Test [2] addresses T1, Transcriptional coactivator YAP1/Transcriptional enhancer factor TEF-1. Briefly: Inhibition of YAP/ GST-TEAD1 interaction in human Bel-7404 cells […]. The class given is cell-based, Bel7404.

1 compound from ChEMBL document CHEMBL3351292, “Structure-Based Design and Synthesis of Potent Cyclic Peptides Inhibiting the YAP-TEAD Protein-Protein Interaction” (ACS Med Chem Lett, 2014) can be followed below.

Where a SMILES comes first, the peptide text is derived from it. Bridges are numbered along the chain shown (N, C = ends). [ ]: non-standard residue; d: D form. hCys = N[C@@H](CCS)C(=O)O; Nle = CCCC[C@H](N)C(=O)O

T1 sequence (P46937 whole entry): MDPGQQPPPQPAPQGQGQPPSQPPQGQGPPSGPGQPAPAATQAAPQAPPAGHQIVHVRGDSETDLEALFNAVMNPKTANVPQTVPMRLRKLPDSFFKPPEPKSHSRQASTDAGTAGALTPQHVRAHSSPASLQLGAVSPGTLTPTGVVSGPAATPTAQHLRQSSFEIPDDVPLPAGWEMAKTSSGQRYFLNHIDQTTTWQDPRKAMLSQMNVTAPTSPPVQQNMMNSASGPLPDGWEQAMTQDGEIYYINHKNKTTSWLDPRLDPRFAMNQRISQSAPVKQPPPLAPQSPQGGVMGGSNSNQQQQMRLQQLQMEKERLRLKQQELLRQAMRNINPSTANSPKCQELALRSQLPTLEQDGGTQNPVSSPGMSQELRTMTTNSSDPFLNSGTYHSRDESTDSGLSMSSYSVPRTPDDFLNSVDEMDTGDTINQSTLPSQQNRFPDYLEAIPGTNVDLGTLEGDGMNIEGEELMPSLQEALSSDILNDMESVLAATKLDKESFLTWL
T1 sequence (P28347 whole entry): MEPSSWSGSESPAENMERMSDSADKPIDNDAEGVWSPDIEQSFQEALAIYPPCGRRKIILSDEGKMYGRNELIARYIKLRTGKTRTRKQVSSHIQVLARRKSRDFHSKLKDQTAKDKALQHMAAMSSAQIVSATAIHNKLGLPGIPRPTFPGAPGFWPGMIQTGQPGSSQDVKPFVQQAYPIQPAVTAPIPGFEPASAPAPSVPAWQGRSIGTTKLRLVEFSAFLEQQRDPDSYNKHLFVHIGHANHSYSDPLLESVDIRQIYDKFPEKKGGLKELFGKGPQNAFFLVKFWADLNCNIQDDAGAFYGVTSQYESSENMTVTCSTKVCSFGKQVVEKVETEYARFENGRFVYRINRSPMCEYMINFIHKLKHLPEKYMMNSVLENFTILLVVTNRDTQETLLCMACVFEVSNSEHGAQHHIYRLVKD

For the compound `CCCC[C@@H]1NC(=O)[C@H](CCCCN)NC(=O)[C@H](CCCNC(=N)N)NC(=O)[C@H](CC(C)C)NC(=O)[C@@H](NC(=O)[C@H](CCSC)NC(=O)[C@@H]2CCCN2C(=O)[C@@H](NC(C)=O)C(C)C)CCSSC[C@@H](C(=O)N[C@@H](CCCCN)C(=O)N2CCC[C@H]2C(=O)N2CCC[C@H]2C(=O)N[C@@H](CCC(=O)O)C(N)=O)NC(=O)[C@H](Cc2ccccc2)NC(=O)[C@H](CO)NC(=O)[C@H](CC(=O)O)NC(=O)[C@@H]2CCCN2C1=O` (Ac-VPM[hCys]LRK[Nle]PDSFCKPPE-NH2; disulfide 4-13), the IC50 in test [1] was 1700 nM. For the same compound, in test [2], the Kd is 211 nM.
